Source: patent US9346815B2, “5-chloro-2-difluoromethoxyphenyl pyrazolopyrimidine compounds, compositions and methods of use thereof” (Genentech, Inc., priority 2014, dated 2016)

Key:
[1] = molecular target: isolated recombinant JAK1 kinase domain (Homo sapiens (Human), UniProt P23458); assay: JAK1 enzyme assay (Caliper LabChip, peptide phosphorylation); format: biochemical; settings: isolated recombinant JAK1 kinase domain, 25 μM ATP
[2] = molecular target: isolated recombinant JAK2 kinase domain (Homo sapiens (Human), UniProt O60674); assay: JAK2 enzyme assay (Caliper LabChip, peptide phosphorylation); format: biochemical; settings: 25 μM ATP
[3] = test system: JAK1-dependent STAT6 phosphorylation downstream of IL-13 stimulation in TF-1 human erythroleukemia cells; assay: JAK1 pathway assay in TF-1 cells (IL-13-pSTAT6, MSD); format: cell-based; settings: Homo sapiens, TF-1, TF-1 cells, read-out: IL13-pSTAT6 EC50_TF-1
Outline: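 TF-1 cells starved of GM-CSF overnight, assayed serum-free; BEAS-2B cells in complete growth medium. Lysate pSTAT6 measured by MSD; EC50 derived.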

Sequence of isolated recombinant JAK1 kinase domain (P23458 875-1153): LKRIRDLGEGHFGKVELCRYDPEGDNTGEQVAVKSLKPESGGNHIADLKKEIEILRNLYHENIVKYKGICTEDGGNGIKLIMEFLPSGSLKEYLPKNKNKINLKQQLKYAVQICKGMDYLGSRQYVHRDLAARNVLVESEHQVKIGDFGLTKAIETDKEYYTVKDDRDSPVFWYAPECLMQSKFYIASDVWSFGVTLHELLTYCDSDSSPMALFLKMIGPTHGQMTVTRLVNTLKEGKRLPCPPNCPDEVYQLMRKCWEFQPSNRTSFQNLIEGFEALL
Sequence of isolated recombinant JAK2 kinase domain (O60674 849-1124): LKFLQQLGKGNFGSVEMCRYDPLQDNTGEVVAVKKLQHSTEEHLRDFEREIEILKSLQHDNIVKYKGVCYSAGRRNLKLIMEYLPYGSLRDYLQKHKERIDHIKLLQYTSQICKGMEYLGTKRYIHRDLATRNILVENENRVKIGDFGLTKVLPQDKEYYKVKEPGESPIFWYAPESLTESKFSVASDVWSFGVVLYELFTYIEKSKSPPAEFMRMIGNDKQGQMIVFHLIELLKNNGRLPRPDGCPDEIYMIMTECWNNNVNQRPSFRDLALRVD

Ki [1] [nM] | Ki [2] [nM] | EC50 [3] [nM] | SMILES
0.67 | 0.09 | 12.3 | CC(C)CN1CCC(n2cc(NC(=O)c3c(N)nn4cccnc34)c(-c3cc(Cl)ccc3OC(F)F)n2)CC1 [Example 174, 2-amino-N-[3-[5-chloro-2-(difluoromethoxy)phenyl]-1-(1-isobutyl-4-piperidyl)pyrazol-4-yl]pyrazolo[1,5-a]pyrimidine-3-carboxamide]
0.78 | 0.13 | 13.4 | CCOC(=O)CCCN1CCC(n2cc(NC(=O)c3c(N)nn4cccnc34)c(-c3cc(Cl)ccc3OC(F)F)n2)CC1 [Example 175, ethyl 4-[4-[4-[(2-aminopyrazolo[1,5-a]pyrimidine-3-carbonyl)amino]-3-[5-chloro-2-(difluoromethoxy)phenyl]pyrazol-1-yl]-1-piperidyl]butanoate]
0.68 | 0.12 | 12.7 | Nc1nn2cccnc2c1C(=O)Nc1cn(C2CCN(CCCO)CC2)nc1-c1cc(Cl)ccc1OC(F)F [Example 176, 2-amino-N-[3-[5-chloro-2-(difluoromethoxy)phenyl]-1-[1-(3-hydroxypropyl)-4-piperidyl]pyrazol-4-yl]pyrazolo[1,5-a]pyrimidine-3-carboxamide]
0.45 | 0.09 | 15 | CS(=O)(=O)CCCN1CCC(n2cc(NC(=O)c3c(N)nn4cccnc34)c(-c3cc(Cl)ccc3OC(F)F)n2)CC1 [Example 177, 2-amino-N-[3-[5-chloro-2-(difluoromethoxy)phenyl]-1-[1-(3-methylsulfonylpropyl)-4-piperidyl]pyrazol-4-yl]pyrazolo[1,5-a]pyrimidine-3-carboxamide]
1.23 | 0.43 | 83.9 | Nc1nn2cccnc2c1C(=O)Nc1cn(C2CCN(Cc3ccccc3)CC2)nc1-c1cc(Cl)ccc1OC(F)F [Example 178, 2-amino-N-[1-(1-benzyl-4-piperidyl)-3-[5-chloro-2-(difluoromethoxy)phenyl]pyrazol-4-yl]pyrazolo[1,5-a]pyrimidine-3-carboxamide]
3.04 | 0.9 | 130 | Nc1nn2cccnc2c1C(=O)Nc1cn(C2CCN(CCCCc3ccccc3)CC2)nc1-c1cc(Cl)ccc1OC(F)F [Example 179, 2-amino-N-[3-[5-chloro-2-(difluoromethoxy)phenyl]-1-[1-(4-phenylbutyl)-4-piperidyl]pyrazol-4-yl]pyrazolo[1,5-a]pyrimidine-3-carboxamide]
1.25 | 0.35 | 38.4 | Nc1nn2cccnc2c1C(=O)Nc1cn(C2CCN(CCOCc3ccccc3)CC2)nc1-c1cc(Cl)ccc1OC(F)F [Example 180, 2-amino-N-[1-[1-(2-benzyloxyethyl)-4-piperidyl]-3-[5-chloro-2-(difluoromethoxy)phenyl]pyrazol-4-yl]pyrazolo[1,5-a]pyrimidine-3-carboxamide]
1.99 | 0.48 | 95.6 | Nc1nn2cccnc2c1C(=O)Nc1cn(C2CCN(CCCCOCCc3ccccc3)CC2)nc1-c1cc(Cl)ccc1OC(F)F [Example 181, 2-amino-N-[3-[5-chloro-2-(difluoromethoxy)phenyl]-1-[1-[4-(2-phenylethoxy)butyl]-4-piperidyl]pyrazol-4-yl]pyrazolo[1,5-a]pyrimidine-3-carboxamide]
0.49 | 0.2 | 8.9 | CN1CC[C@H](n2cc(NC(=O)c3c(N)nn4cccnc34)c(-c3cc(Cl)ccc3OC(F)F)n2)C1 [Example 182, 2-amino-N-[3-[5-chloro-2-(difluoromethoxy)phenyl]-1-[(3S)-1-methylpyrrolidin-3-yl]pyrazol-4-yl]pyrazolo[1,5-a]pyrimidine-3-carboxamide]
0.49 | 0.23 | 6.8 | CN1CC[C@@H](n2cc(NC(=O)c3c(N)nn4cccnc34)c(-c3cc(Cl)ccc3OC(F)F)n2)C1 [Example 183, 2-amino-N-[3-[5-chloro-2-(difluoromethoxy)phenyl]-1-[(3R)-1-methylpyrrolidin-3-yl]pyrazol-4-yl]pyrazolo[1,5-a]pyrimidine-3-carboxamide]
0.71 | 0.2 | 12.3 | Nc1nn2cccnc2c1C(=O)Nc1cn([C@H]2CCNC2)nc1-c1cc(Cl)ccc1OC(F)F [Example 186, 2-amino-N-[3-[5-chloro-2-(difluoromethoxy)phenyl]-1-[(3S)-pyrrolidin-3-yl]pyrazol-4-yl]pyrazolo[1,5-a]pyrimidine-3-carboxamide]
2.93 | 2.92 | 10.5 | CN(C)CCC1CCN(c2nc(-c3cc(Cl)ccc3OC(F)F)c(NC(=O)c3cnn4cccnc34)s2)CC1 [Example 191, N-[4-[5-chloro-2-(difluoromethoxy)phenyl]-2-[4-[2-(dimethylamino)ethyl]-1-piperidyl]thiazol-5-yl]pyrazolo[1,5-a]pyrimidine-3-carboxamide]
5 | 3.72 | 272 | CN(CCc1ccccc1)C1CCN(c2nc(-c3cc(Cl)ccc3OC(F)F)c(NC(=O)c3cnn4cccnc34)s2)CC1 [Example 192, N-[4-[5-chloro-2-(difluoromethoxy)phenyl]-2-[4-[methyl(2-phenylethyl)amino]-1-piperidyl]thiazol-5-yl]pyrazolo[1,5-a]pyrimidine-3-carboxamide]
2.23 | 1.46 | 23.5 | CN(CCCC(N)=O)C1CCN(c2nc(-c3cc(Cl)ccc3OC(F)F)c(NC(=O)c3cnn4cccnc34)s2)CC1 [Example 193, N-[2-[4-[(4-amino-4-oxo-butyl)-methyl-amino]-1-piperidyl]-4-[5-chloro-2-(difluoromethoxy)phenyl]thiazol-5-yl]pyrazolo[1,5-a]pyrimidine-3-carboxamide]
2.28 | 1.44 | 17.4 | O=C(Nc1sc(N2CCC(N3CC(F)C3)CC2)nc1-c1cc(Cl)ccc1OC(F)F)c1cnn2cccnc12 [Example 194, N-[4-[5-chloro-2-(difluoromethoxy)phenyl]-2-[4-(3-fluoroazetidin-1-yl)-1-piperidyl]thiazol-5-yl]pyrazolo[1,5-a]pyrimidine-3-carboxamide]
1.36 | 0.86 | 16.5 | O=C(Nc1sc(N2CC(N3CCCCC3)C2)nc1-c1cc(Cl)ccc1OC(F)F)c1cnn2cccnc12 [Example 195, N-[4-[5-chloro-2-(difluoromethoxy)phenyl]-2-[3-(1-piperidyl)azetidin-1-yl]thiazol-5-yl]pyrazolo[1,5-a]pyrimidine-3-carboxamide]
1.74 | 1.05 | 17.4 | O=C(Nc1sc(N2CCC(N3CC(F)(F)C3)CC2)nc1-c1cc(Cl)ccc1OC(F)F)c1cnn2cccnc12 [Example 196, N-[4-[5-chloro-2-(difluoromethoxy)phenyl]-2-[4-(3,3-difluoroazetidin-1-yl)-1-piperidyl]thiazol-5-yl]pyrazolo[1,5-a]pyrimidine-3-carboxamide]
1.22 | 1.07 | 7.3 | CCCCN(C)C1CCN(c2nc(-c3cc(Cl)ccc3OC(F)F)c(NC(=O)c3cnn4cccnc34)s2)CC1 [Example 199, N-[2-[4-[butyl(methyl)amino]-1-piperidyl]-4-[5-chloro-2-(difluoromethoxy)phenyl]thiazol-5-yl]pyrazolo[1,5-a]pyrimidine-3-carboxamide]
5.05 | 3.76 | 184 | CN(Cc1ccccc1)C1CCN(c2nc(-c3cc(Cl)ccc3OC(F)F)c(NC(=O)c3cnn4cccnc34)s2)CC1 [Example 201, N-[2-[4-[benzyl(methyl)amino]-1-piperidyl]-4-[5-chloro-2-(difluoromethoxy)phenyl]thiazol-5-yl]pyrazolo[1,5-a]pyrimidine-3-carboxamide]
1.1 | 1.82 | 15.8 | CN(CC(F)(F)F)C1CCN(C(=O)C2CCN(c3nc(-c4cc(Cl)ccc4OC(F)F)c(NC(=O)c4cnn5cccnc45)s3)CC2)CC1 [Example 202, N-[4-[5-chloro-2-(difluoromethoxy)phenyl]-2-[4-[4-[methyl(2,2,2-trifluoroethyl)amino]piperidine-1-carbonyl]-1-piperidyl]thiazol-5-yl]pyrazolo[1,5-a]pyrimidine-3-carboxamide]
1.01 | 0.69 | 23.6 | O=C(Nc1sc(N2CCN(CC3CC3)CC2)nc1-c1cc(Cl)ccc1OC(F)F)c1cnn2cccnc12 [Example 207, N-[4-[5-chloro-2-(difluoromethoxy)phenyl]-2-[4-(cyclopropylmethyl)piperazin-1-yl]thiazol-5-yl]pyrazolo[1,5-a]pyrimidine-3-carboxamide]
1.38 | 1.08 | 33.5 | O=C(Nc1sc(N2CCN(CC(F)(F)F)CC2)nc1-c1cc(Cl)ccc1OC(F)F)c1cnn2cccnc12 [Example 208, N-[4-[5-chloro-2-(difluoromethoxy)phenyl]-2-[4-(2,2,2-trifluoroethyl)piperazin-1-yl]thiazol-5-yl]pyrazolo[1,5-a]pyrimidine-3-carboxamide]
0.16 | 0.1 | 240 | CCCCN(C)CC#Cc1nc(-c2cc(Cl)ccc2OC(F)F)c(NC(=O)c2cnn3cccnc23)s1 [Example 210, N-[2-[3-[butyl(methyl)amino]prop-1-ynyl]-4-[5-chloro-2-(difluoromethoxy)phenyl]thiazol-5-yl]pyrazolo[1,5-a]pyrimidine-3-carboxamide]
1.1 | 1.38 | 20.9 | CN1CCC2(C1)CN(C(=O)Cn1cc(NC(=O)c3cnn4cccnc34)c(-c3cc(Cl)ccc3OC(F)F)n1)C2 [Example 211, Pyrazolo[1,5-a]pyrimidine-3-carboxylic acid {3-(5-chloro-2-difluoromethoxyphenyl)-1-[2-(6-methyl-2,6-diazaspiro[3.4]oct-2-yl)-2-oxoethyl]-1H-pyrazol-4-yl}amide]
